Experimental data as given in patent US20240350506A1, “PREPARATION OF HISTONE DEACETYLASE INHIBITOR, AND PREPARATION METHOD THEREFOR AND USE THEREOF” (CHENGDU ZENITAR BIOMEDICAL TECHNOLOGY CO., LTD., priority 2021, published 2024).
Where a name gives a salt, the structure may show the parent alone. Read-outs that look alike come from different tables or passages of the source.

Key:
[1] = Phase solubility of PM in cyclodextrins (HP-β-CD, SBE-β-CD); assay type: physicochemical; settings: API saturated; for Storing at 4° C. for one day: cell wraps ('sediment')
Protocol: (§1) According to the pH guidance standard for injection, the optimal pH range for injection was 4-9.
Then, excess PM raw materials were added and dissolved under ultrasound until saturation. A clear saturated solution was filtered out over a 0.22 μm membrane and transferred into a centrifuge tube. The concentration (mg/mL) and purity (%) of dissolved PM raw materials were detected by HPLC, and then, whether there was drug precipitation was observed using a clarity detector after being stored in a refrigerator at 4° C. in dark for one day.

[2] = Phase solubility of PM in in-situ basic salt-forming agents (arginine, meglumine); assay type: physicochemical; settings: API saturated; for solubility thermodynamic: aqueous with cosolvent or surfactant or cyclodextrin, thermodynamic from solid, read-out: Drug concentration
Protocol: as §1
Then, excessive PM raw materials were added and dissolved under ultrasound until saturation. A clear saturated solution was filtered out over a 0.22 μm membrane and transferred into a centrifuge tube. The concentration (mg/mL) and purity […] of dissolved PM raw materials were detected by HPLC, and then, whether there was drug precipitation was observed using a clarity detector after being stored in a refrigerator at 4° C. in dark for one day.

[3] = tested on: Human Burkitt's lymphoma Daudi cell lines; assay: Pharmacodynamic experiment on subcutaneously transplanted tumor, Daudi, in NOD/SCID mice; assay type: in vivo; settings: 10 mg/kg i.v. three times a week (LBH589 dose), female NOD/SCID mice, day 32
Protocol: Establishment of subcutaneously transplanted tumor model: Human Burkitt's lymphoma Daudi cell lines were in vitro cultured in RPMI-1640 medium containing 10% fetal bovine serum, 100 U/mL penicillin, and 100 μg/mL streptomycin. The cells in logarithmic growth phase were selected, and washed three times with PBS buffer under sterile conditions. The single cell suspension was diluted with PBS buffer to 2×10^8 cells/mL for future use. […], 0.1 mL of single cell suspension was taken, and then subcutaneously inoculated into the back of female NOD/SCID mice with a weight of >20 g. Grouping and treatment: When the volume of the tumor reached 100-200 mm^3 or above (the measurement and calculation method of tumor volume (TV): TV (mm^3)=a×b2×π/6, wherein a and b represent the longest diameter and the shortest diameter (mm), respectively), tumor-bearing mice with excessive or insufficient tumor volumes would be eliminated, and qualified animals were randomly divided into groups.
Experimental endpoint and analysis indicators: Example 5 of the present invention was administered 14 times, and the experiment was terminated on the 32nd day after the first treatment. The analysis indicators are:
(2) Determination of tumor weight and calculation of tumor inhibition rate (%)
When the experiment was terminated, the animals was euthanized according to the operating procedures of animal experiments, and dissected to collect the tumor mass, which was then weighted. The tumor inhibition rate (%) was calculated according to the following formula: […]
(3) Animal survival and weight changes during the experimental process.

[4] = tested on: Human multiple myeloma RPMI-8226 cell lines; assay: Pharmacodynamic experiment on subcutaneously transplanted tumor, RPMI-8226, in NOD/SCID mice; assay type: in vivo; settings: 10 mg/kg i.v. three times a week; female NOD/SCID mice, day 32
Protocol: Establishment of subcutaneously transplanted tumor model: […] The cells in logarithmic growth phase were selected, and washed three times with PBS buffer under sterile conditions. The single cell suspension was diluted with PBS buffer to 7×10^7 cells/mL for future use. Prior to seeding, 0.1 mL of single cell suspension was taken, and then subcutaneously inoculated into the back of female NOD/SCID mice with a weight of >20 g. Grouping and treatment: When the volume of the tumor reached 100-200 mm^3 or above (the measurement and calculation method of tumor volume (TV): TV (mm^3)=a×b2×π/6, wherein a and b represent the longest diameter and the shortest diameter (mm), respectively), tumor-bearing mice with excessive or insufficient tumor volumes would be eliminated, and qualified animals were randomly divided into groups. […] “B” means Bortezomib; “D” means Dexamethasone; “L” means Lenalidomide. Experimental endpoint and analysis indicators: Example 5 of the present invention was administered 14 times, and the experiment was terminated on the 32nd day after the first treatment. The analysis indicators are: (2) Determination of tumor weight and calculation of tumor inhibition rate (%) When the experiment was terminated, according to the operating procedures of animal experiments, the animals was euthanized and dissected to collect the tumor mass, which was then weighted. The tumor inhibition rate (%) was calculated according to the following formula: [formula] (3) Animal survival and weight changes during the experimental process.

CN(Cc1nc2c(N3CCOCC3)nc(-c3ccc(N)cc3)nc2n1C)c1ncc(C(=O)NO)cn1 [API, purinostat mesylate]
Drug concentration ([1]; HP-β-CD 5% (M/V)): 1850 µg/mL | Drug purity (%) ([1]; HP-β-CD 5% (M/V)): 99.21% | pH values ([1]; HP-β-CD 5% (M/V)): 2.42 | Storing at 4° C. for one day ([1]; HP-β-CD 5% (M/V)): Trace | Drug concentration ([1]; HP-β-CD 10% (M/V)): 2020 µg/mL | Drug purity (%) ([1]; HP-β-CD 10% (M/V)): 99.15% | pH values ([1]; HP-β-CD 10% (M/V)): 2.54 | Storing at 4° C. for one day ([1]; HP-β-CD 10% (M/V)): Trace | Drug concentration ([1]; HP-β-CD 15% (M/V)): 3160 µg/mL | Drug purity (%) ([1]; HP-β-CD 15% (M/V)): 99.08% | pH values ([1]; HP-β-CD 15% (M/V)): 2.55 | Storing at 4° C. for one day ([1]; HP-β-CD 15% (M/V)): Trace | Drug concentration ([1]; HP-β-CD 20% (M/V)): 4130 µg/mL | Drug purity (%) ([1]; HP-β-CD 20% (M/V)): 98.96% | pH values ([1]; HP-β-CD 20% (M/V)): 2.67 | Storing at 4° C. for one day ([1]; HP-β-CD 20% (M/V)): Trace | Drug concentration ([1]; HP-β-CD 25% (M/V)): 4520 µg/mL | Drug purity (%) ([1]; HP-β-CD 25% (M/V)): 98.24% | pH values ([1]; HP-β-CD 25% (M/V)): 2.7 | Storing at 4° C. for one day ([1]; HP-β-CD 25% (M/V)): Trace | Drug concentration ([1]; SBE-β-CD 5% (M/V)): 930 µg/mL | Drug purity (%) ([1]; SBE-β-CD 5% (M/V)): 99.78% | pH value ([1]; SBE-β-CD 5% (M/V)): 3.77 | Storing at 4° C. for one day ([1]; SBE-β-CD 5% (M/V)): Trace | Drug concentration ([1]; SBE-β-CD 10% (M/V)): 1180 µg/mL | Drug purity (%) ([1]; SBE-β-CD 10% (M/V)): 99.01% | pH value ([1]; SBE-β-CD 10% (M/V)): 3.71 | Storing at 4° C. for one day ([1]; SBE-β-CD 10% (M/V)): Trace | Drug concentration ([1]; SBE-β-CD 15% (M/V)): 1800 µg/mL | Drug purity (%) ([1]; SBE-β-CD 15% (M/V)): 99.35% | pH value ([1]; SBE-β-CD 15% (M/V)): 3.67 | Storing at 4° C. for one day ([1]; SBE-β-CD 15% (M/V)): Trace | Drug concentration ([1]; SBE-β-CD 20% (M/V)): 2220 µg/mL | Drug purity (%) ([1]; SBE-β-CD 20% (M/V)): 99.35% | pH value ([1]; SBE-β-CD 20% (M/V)): 3.64 | Storing at 4° C. for one day ([1]; SBE-β-CD 20% (M/V)): Trace | Drug concentration ([1]; SBE-β-CD 25% (M/V)): 2610 µg/mL | Drug purity (%) ([1]; SBE-β-CD 25% (M/V)): 99.17% | pH value ([1]; SBE-β-CD 25% (M/V)): 3.57 | Storing at 4° C. for one day ([1]; SBE-β-CD 25% (M/V)): Trace | solubility thermodynamic ([2]; 1‰ (M/V) arginine solution in UP water, Arginine 1‰): 50 µg/mL | solubility thermodynamic ([2]; 1‰ (M/V) meglumine solution in UP water, Meglumine 1‰): 130 µg/mL | solubility thermodynamic ([2]; 3‰ (M/V) arginine solution in UP water, Arginine 3‰): 110 µg/mL | solubility thermodynamic ([2]; 3‰ (M/V) meglumine solution in UP water, Meglumine 3‰): 240 µg/mL | solubility thermodynamic ([2]; 5‰ (M/V) arginine solution in UP water, Arginine 5‰): 170 µg/mL | solubility thermodynamic ([2]; 5‰ (M/V) meglumine solution in UP water, Meglumine 5‰): 350 µg/mL | solubility thermodynamic ([2]; 8‰ (M/V) arginine solution in UP water, Arginine 8‰): 280 µg/mL | solubility thermodynamic ([2]; 8‰ (M/V) meglumine solution in UP water, Meglumine 8‰): 460 µg/mL | solubility thermodynamic ([2]; 10‰ (M/V) arginine solution in UP water, Arginine 10‰): 370 µg/mL | solubility thermodynamic ([2]; 10‰ (M/V) meglumine solution in UP water, Meglumine 10‰): 700 µg/mL | Drug purity (%) ([2]; Arginine 1‰): 100% | pH value ([2]; Arginine 1‰): 8.87 | Drug purity (%) ([2]; Arginine 3‰): 100% | pH value ([2]; Arginine 3‰): 9.30 | Drug purity (%) ([2]; Arginine 5‰): 100% | pH value ([2]; Arginine 5‰): 9.61 | Drug purity (%) ([2]; Arginine 8‰): 98.97% | pH value ([2]; Arginine 8‰): 9.76 | Drug purity (%) ([2]; Arginine 10‰): 99.24% | pH value ([2]; Arginine 10‰): 9.84 | Drug purity (%) ([2]; Meglumine 1‰): 100% | pH value ([2]; Meglumine 1‰): 9.65 | Drug purity (%) ([2]; Meglumine 3‰): 99.80% | pH value ([2]; Meglumine 3‰): 9.98 | Drug purity (%) ([2]; Meglumine 5‰): 96.55% | pH value ([2]; Meglumine 5‰): 10.22 | Drug purity (%) ([2]; Meglumine 8‰): 99.45% | pH value ([2]; Meglumine 8‰): 10.41 | Drug purity (%) ([2]; Meglumine 10‰): 99.07% | pH value ([2]; Meglumine 10‰): 10.42

Cc1[nH]c2ccccc2c1CCNCc1ccc(/C=C/C(=O)NO)cc1 [LBH589]
Animal numbers End/Begining [3]: 7/7 | Tumor inhibition rate (%) [3]: 76.92% | Weight of tumor mass X ± SD ([3]; in g (unit assumed)): 0.83 ± 0.38 | Animal number End/Beginning [4]: 6/6 | Tumor inhibition rate (%) [4]: 59.79% | Tumor weight (g) X ± SD [4]: 0.90 ± 0.37 g
